# Data from patent publication US20210214364A1, “sGC STIMULATORS” (Cyclerion Therapeutics, Inc., priority 2013, published 2021).
# Target: T1, soluble guanylate cyclase (sGC) endogenously expressed in HEK293 cells (Homo sapiens, UniProt Q02108+Q02153)
# T1 construct: endogenously expressing soluble guanylate cyclase (sGC); endogenous in cells; host or cells: HEK293
# T1 sequence (Q02153 1-619): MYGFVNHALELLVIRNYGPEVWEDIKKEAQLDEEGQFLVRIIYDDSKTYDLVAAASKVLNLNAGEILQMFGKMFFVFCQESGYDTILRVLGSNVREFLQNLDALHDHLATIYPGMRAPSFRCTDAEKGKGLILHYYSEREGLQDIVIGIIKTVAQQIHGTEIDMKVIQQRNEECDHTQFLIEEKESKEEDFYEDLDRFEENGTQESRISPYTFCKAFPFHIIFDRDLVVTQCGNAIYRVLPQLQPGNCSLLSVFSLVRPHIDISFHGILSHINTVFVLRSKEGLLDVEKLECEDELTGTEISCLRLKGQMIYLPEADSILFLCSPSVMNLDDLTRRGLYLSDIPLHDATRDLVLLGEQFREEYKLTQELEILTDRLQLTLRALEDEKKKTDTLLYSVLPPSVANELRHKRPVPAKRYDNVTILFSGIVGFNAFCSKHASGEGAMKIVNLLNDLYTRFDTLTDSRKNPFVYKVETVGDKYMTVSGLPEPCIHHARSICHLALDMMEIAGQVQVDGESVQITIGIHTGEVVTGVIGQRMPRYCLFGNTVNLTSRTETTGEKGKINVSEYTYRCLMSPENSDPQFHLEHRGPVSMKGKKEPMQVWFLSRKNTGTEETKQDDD
# T1 sequence (Q02108 1-690): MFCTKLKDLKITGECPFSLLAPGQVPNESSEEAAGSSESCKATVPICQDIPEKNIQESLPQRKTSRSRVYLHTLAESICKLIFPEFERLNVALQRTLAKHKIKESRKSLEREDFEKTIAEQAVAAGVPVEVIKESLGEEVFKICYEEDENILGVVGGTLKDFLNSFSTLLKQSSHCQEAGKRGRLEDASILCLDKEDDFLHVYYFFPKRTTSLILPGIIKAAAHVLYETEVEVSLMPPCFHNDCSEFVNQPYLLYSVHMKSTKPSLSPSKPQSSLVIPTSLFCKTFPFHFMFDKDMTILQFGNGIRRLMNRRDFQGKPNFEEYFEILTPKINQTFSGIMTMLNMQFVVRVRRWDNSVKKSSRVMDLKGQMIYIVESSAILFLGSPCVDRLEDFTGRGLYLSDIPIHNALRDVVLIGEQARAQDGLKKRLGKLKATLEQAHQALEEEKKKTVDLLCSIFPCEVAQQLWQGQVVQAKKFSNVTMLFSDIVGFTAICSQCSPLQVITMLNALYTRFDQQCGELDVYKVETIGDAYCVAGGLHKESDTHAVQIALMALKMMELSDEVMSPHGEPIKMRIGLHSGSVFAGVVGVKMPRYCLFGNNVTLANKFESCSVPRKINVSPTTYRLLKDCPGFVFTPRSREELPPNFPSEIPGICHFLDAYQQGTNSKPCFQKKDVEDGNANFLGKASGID
# Assay: sGC-HEK-cGMP assay with LC/MS detection (whole cell)
# Assay type: cell-based
# Conditions: 10 μM DETA-NONOate, 20 min, concentration eliciting 50% of high control response (30 μM Compound Y), read-out: sGC_HEK_LC MS EC50 Abs
# Description: Example 2: Biological Activity Measurement by the sGC-HEK-cGMP Assay, with LC/MS Detection
# Human embryonic kidney cells (HEK293), endogenously expressing soluble guanylate cyclase (sGC), were used to evaluate the activity of test compounds. Compounds stimulating the sGC enzyme should cause an increase in the intracellular concentration of cGMP. HEK 293 cells were seeded in Dulbecco's Modification of Eagle's Medium supplemented with fetal bovine serum (10% final) and penicillin (100 U/mL)/streptomycin (100 μg/mL) in a 50 μL volume at a density of 1.5×10^4 cells/well in a poly-D-lysine coated 384 well flat bottom plate. Cells were incubated overnight at 37° C. in a humidified chamber with 5% CO2. Medium was aspirated and cells were washed with 1× Hank's Buffered Saline Salt Solution (50 μL). Cells were then incubated for 15 minutes at 37° C. with 50 μL of a 0.5 mM 3-isobutyl-1-methylxanthine (IBMX) solution. Test article and Diethylenetriamine NONOate (DETA-NONOate) solutions (x […] concentration for test article solution and 10 μM concentration for DETA-NONOate solution; wherein x is one of the following concentrations);
# were then added to the assay mixture and the resulting mixture incubated at 37° C. for 20 minutes. After the 20 minute incubation, the assay mixture was aspirated and 10% acetic acid containing 150 ng/mL+3-cGMP (internal standard for LCMS) (50 μL) was added to the cells. The plate was incubated at 4° C. for 30 minutes in the acetic acid solution to stop the reaction and lyse the cells. The plates were then centrifuged at 1,000 g for 3 minutes at 4° C. and the supernatant transferred to a clean reaction plate for LCMS analysis.
# cGMP concentrations were determined from each sample using the LCMS conditions below (Table 2) and calculated standard curve. The standard curve was prepared in 10% acetic acid with 150 ng/mL+3cGMP (isotopically labelled cGMP with a weight 3 units higher than wild type) with the following final concentrations of cGMP in ng/mL: 1, 5, 10, 50, 100, 250, 500, 1000, 2000.
# Data were normalized to a high control using the following equation: 100*(Sample−Low Control)/(High Control−Low Control), where the low control is the average of 16 samples treated with 1% DMSO, and the high control is the average of 16 samples treated with 30 μM of Compound Y depicted below. Data were fit using a 4-parameter fit (log(agonist) vs. response variable slope) using GraphPad Prism Software v.5. n=2 for all compounds. The Absolute EC50 was interpolated from the curve fit and is defined as the concentration at which a given compound elicits 50% of the high control response. Compounds failing to elicit a minimum response of 50% are reported as >30 μM. For compounds run in duplicate or n higher than 2, the result herein given is the geometric mean of the several results obtained.
row,SMILES,EC50
1,O=c1[nH]c(-c2cc(OC(F)F)n(Cc3ccccc3F)n2)ncc1F [Compound I-4],≥ 1000 nM
2,COc1cc(-c2ncc(F)c(=O)[nH]2)nn1Cc1ccccc1F [Compound I-5],≥ 1000 nM
3,COc1cc(-c2nccc(N)n2)nn1Cc1ccccc1F [Compound I-6],≥ 1000 nM
4,COc1cc(-c2nc(N)c3c(n2)NC(=O)C3(C)C(N)=O)nn1CCC(F)(F)F (stereo not drawn) [Compound I-7],≥ 1000 nM
5,COc1cc(-c2ncc(F)c(NCCO)n2)nn1Cc1ccccc1F [Compound I-13],≥ 1000 nM
6,COc1cc(-c2nc3c(c(=O)[nH]2)=C(C)C(=O)N=3)nn1Cc1ccccc1F [Compound I-15],≥ 1000 nM
7,COc1nc(-c2nc(N)c3c(n2)NC(=O)C3(C)C(N)=O)nn1Cc1ccccc1F (stereo not drawn) [Compound I-17],≥ 1000 nM
8,Cn1c(-c2nc(N)c3c(n2)NC(=O)C3(C)C(N)=O)nn(Cc2ccccc2F)c1=O (stereo not drawn) [Compound I-18],≥ 1000 nM
9,CCOC(=O)C1(C)C(=O)Nc2nc(-c3nn(Cc4ccccc4F)c(=O)[nH]3)nc(N)c21 (stereo not drawn) [Compound I-21],≥ 1000 nM
10,CCOC(=O)C1(C)C(=O)Nc2nc(-c3nn(Cc4ccccc4F)c(=O)n3C)nc(N)c21 (stereo not drawn) [Compound I-29],≥ 1000 nM
11,CCOC(=O)C1(C)C(=O)Nc2nc(-c3nc(OC)n(Cc4ccccc4F)n3)nc(N)c21 (stereo not drawn) [Compound I-30],≥ 1000 nM
12,COc1cc(-c2ncc(F)c(N3CCCCC3)n2)nn1Cc1ccccc1F [Compound I-31],≥ 1000 nM
13,COc1cc(-c2ncc(F)c(NCCCCC(=O)O)n2)nn1Cc1ccccc1F [Compound I-32],101 to 1000 nM
14,COc1cc(-c2ncc(F)c(N3CCC(S(N)(=O)=O)CC3)n2)nn1Cc1ccccc1F [Compound I-33],≥ 1000 nM
15,CC1(C)C(=O)Nc2nc(-c3cc(OC(F)F)n(Cc4cccc(F)c4F)n3)nc(N)c21 [Compound I-34],101 to 1000 nM
16,CCOC(=O)C1(C)C(=O)Nc2nc(-c3cc(OC)n(Cc4ccccc4F)n3)[nH]c(=O)c21 (stereo not drawn) [Compound I-35],101 to 1000 nM
17,COc1cc(-c2ncc(F)c(N3CC(C)C(C(=O)O)C3)n2)nn1Cc1ccccc1F (stereo not drawn) [Compound I-36],≥ 1000 nM
18,COc1nc(-c2nc(N)c3c(n2)NC(=O)C3(C)C(=O)NC2CC2)nn1Cc1ccccc1F (stereo not drawn) [Compound I-37],≥ 1000 nM
19,Cn1c(-c2nc(N)c3c(n2)NC(=O)C3(C)C(=O)NC2CC2)nn(Cc2ccccc2F)c1=O (stereo not drawn) [Compound I-38],≥ 1000 nM
20,C[C@H]1CCCN(c2nc(-c3cc(OC(F)F)n(Cc4ccccc4F)n3)ncc2F)[C@H]1C(=O)O [Compound I-42],101 to 1000 nM
21,CCOC(=O)C1(C)C(=O)Nc2nc(-c3nn(Cc4ccccc4F)c(OC)c3C)nc(N)c21 (stereo not drawn) [Compound I-45],101 to 1000 nM
22,CCOC(=O)C1(C)C(=O)Nc2nc(-c3cc(OCC)n(Cc4ccccc4F)n3)nc(N)c21 (stereo not drawn) [Compound I-46],101 to 1000 nM
23,COc1cc(-c2ncc(NC(=O)OCc3ccccc3)c(=O)[nH]2)nn1Cc1ccccc1F [Compound I-47],≥ 1000 nM
24,CCOC(=O)C1(C)C(=O)Nc2nc(-c3cc(OC(F)F)n(Cc4cccc(F)c4F)n3)nc(N)c21 (stereo not drawn) [Compound I-52],101 to 1000 nM
25,CC1(C(N)=O)C(=O)Nc2nc(-c3cc(OC(F)F)n(Cc4cccc(F)c4F)n3)nc(N)c21 (stereo not drawn) [Compound I-53],101 to 1000 nM

# Next, values leading:
row,EC50,SMILES
1,101 to 1000 nM,COc1cc(-c2nc(N)c3c(n2)NC(=O)C3(C)C(N)=O)nn1Cc1ccccc1F (stereo not drawn) [Compound I-2]
2,≥ 1000 nM,CCOC(=O)C1(C)C(=O)Nc2nc(-c3cc(OC(C)C)n(Cc4ccccc4F)n3)nc(N)c21 (stereo not drawn) [Compound I-8]
3,≥ 1000 nM,COc1cc(-c2ncc(F)c(NCC(=O)O)n2)nn1Cc1ccccc1F [Compound I-9]
4,≥ 1000 nM,CC1(C(N)=O)C(=O)Nc2nc(-c3nn(Cc4ccccc4F)c(=O)[nH]3)nc(N)c21 (stereo not drawn) [Compound I-10]
5,≥ 1000 nM,COc1cc(-c2ncc(F)c(NCC(N)=O)n2)nn1Cc1ccccc1F [Compound I-11]
6,≥ 1000 nM,COc1cc(-c2ncc(F)c(N(C)C)n2)nn1Cc1ccccc1F [Compound I-12]
7,≥ 1000 nM,CCOC(=O)C1(C)C(=O)Nc2nc(-c3cc(OC)n(CCC(F)(F)F)n3)nc(N)c21 (stereo not drawn) [Compound I-14]
8,101 to 1000 nM,COc1cc(-c2nnc3c(n2)NC(=O)C3(C)C)nn1Cc1ccccc1F [Compound I-16]
9,≥ 1000 nM,COc1cc(-c2ncc(F)c(NCc3cc(=O)[nH]o3)n2)nn1Cc1ccccc1F [Compound I-19]
10,101 to 1000 nM,COc1cc(-c2ncc(F)c(NCC(O)(C(N)=O)C(F)(F)F)n2)nn1Cc1ccccc1F (stereo not drawn) [Compound I-20]
11,≥ 1000 nM,COc1cc(-c2ncc(F)c(N3CCCC3)n2)nn1Cc1ccccc1F [Compound I-22]
12,≥ 1000 nM,COc1cc(-c2ncc(F)c(N3CCOCC3)n2)nn1Cc1ccccc1F [Compound I-23]
13,≥ 1000 nM,COc1cc(-c2ncc(F)c(N3CCNCC3)n2)nn1Cc1ccccc1F [Compound I-24]
14,101 to 1000 nM,COc1c(C#N)c(-c2nc(N)c3c(n2)NC(=O)C3(C)C(N)=O)nn1Cc1ccccc1F (stereo not drawn) [Compound I-25]
15,≥ 1000 nM,COC(=O)NC1(C)C(=O)Nc2nc(-c3cc(OC)n(Cc4ccccc4F)n3)[nH]c(=O)c21 (stereo not drawn) [Compound I-26]
16,≥ 1000 nM,COc1c(C)c(-c2nc(N)c3c(n2)NC(=O)C3(C)C(N)=O)nn1Cc1ccccc1F (stereo not drawn) [Compound I-27]
17,≥ 1000 nM,CCOc1cc(-c2nc(N)c3c(n2)NC(=O)C3(C)C(N)=O)nn1Cc1ccccc1F (stereo not drawn) [Compound I-28]
18,101 to 1000 nM,CC1(C(=O)NC2CC2)C(=O)Nc2nc(-c3cc(OC(F)F)n(Cc4cccc(F)c4F)n3)ncc21 (stereo not drawn) [Compound I-40]
19,≥ 1000 nM,CC1(C(N)=O)C(=O)Nc2nc(-c3cc(OC(F)F)n(CCC(F)(F)C(F)(F)F)n3)nc(N)c21 (stereo not drawn) [Compound I-41]
20,≥ 1000 nM,COc1cc(-c2nc3c(c(=O)[nH]2)C(C)(C(=O)NC2CC2)C(=O)N3)nn1Cc1ccccc1F (stereo not drawn) [Compound I-43]
21,≥ 1000 nM,CC1(C(N)=O)C(=O)Nc2nc(-c3cc(O)n(Cc4ccccc4F)n3)nc(N)c21 (stereo not drawn) [Compound I-48]
22,≥ 1000 nM,CC1(C(=O)NC2CC2)C(=O)Nc2nc(-c3cc(OC(F)F)n(CCC(F)(F)C(F)(F)F)n3)nc(N)c21 (stereo not drawn) [Compound I-50]
23,101 to 1000 nM,CC1(C(=O)NC2CC2)C(=O)Nc2nc(-c3cc(OC(F)F)n(Cc4cccc(F)c4F)n3)nc(N)c21 (stereo not drawn) [Compound I-54]
